Assay [1] concerns the target cAMP-specific 3',5'-cyclic phosphodiesterase 4D [372-376,381-715,S375G,I381V,S383G,G384S,V385H,K386M) (Homo sapiens, UniProt Q08499, S375G/I381V/S383G/G384S/V385H/K386M). Put plainly: Phosphodiesterase (PDE) Inhibition Assay. As for the experimental part: (§1) Phosphodiesterase activities were assayed in the presence of inhibitor compounds. Measurement takes advantage of the selective binding of 5-AMP or 5-GMP (and not cAMP or cGMP) to yttrium silicate beads with embedded scintillant. Hydrolysis is quantified by reading in a scintillation counter (Trilux, Wallac). The cAMP and cGMP concentrations used were far below the Km of PDE.

The target of assay [2] is T1, cAMP-specific 3',5'-cyclic phosphodiesterase 4B [316-320,321-700,S319G,N320S,N321H,T322M] (Homo sapiens, UniProt Q07343, S319G/N320S/N321H/T322M).
T1 construct: 316-320,321-700
Nature of the assay: Phosphodiesterase (PDE) Inhibition Assay. As to conditions: pH 7.5; 30 °C. As for the experimental part:
as §1

Consider `Cc1n[nH]c(C)c1C(=O)O` [3,5-dimethyl-1H-pyrazole-4-carboxylic acid], for which the IC50 in assay [1] and in assay [2] was above 200 µM each time. As for `CCOC(=O)c1c[nH]nc1C(F)(F)F` [5-(trifluoromethyl)-1H-pyrazole-4-carboxylic acid ethyl ester], the IC50 in assay [1] and in assay [2] was above 200 µM in each case. Turning to `CCOC(=O)c1c(C)nn(-c2ccc([N+](=O)[O-])cc2[N+](=O)[O-])c1C` [ethyl 1-(2,4-dinitrophenyl)-3,5-dimethyl-1H-pyrazole-4-carboxylate], the figures for the IC50 in assay [1] and in assay [2] were 4.6 µM and 17 µM, respectively. In the case of `CCOC(=O)c1c(C)nn(-c2ccccc2Cl)c1C` [ethyl 1-(2-chlorophenyl)-3,5-dimethyl-1H-pyrazole-4-carboxylate], in assay [1], the concentration for half-maximal inhibition (IC50) was 0.019 µM.

Regarding `CCOC(=O)c1c(C)nn(-c2ccc(N)cc2)c1C` [ethyl 1-(4-aminophenyl)-3,5-dimethyl-1H-pyrazole-4-carboxylate], in assay [2], the IC50 came out at 0.35 µM. `CCOC(=O)c1c(C)nn(-c2ccc(OC)cc2)c1C` [ethyl 1-(4-methoxyphenyl)-3,5-dimethyl-1H-pyrazole-4-carboxylate] came in with a concentration for half-maximal inhibition (IC50) in assay [2] of 5.9 µM. This IC50 lies about 17-fold higher than the previous one. `CCOC(=O)c1c(C)nn(-c2ccc(C(C)(C)C)cc2)c1C` [ethyl 1-(4-tert-butylphenyl)-3,5-dimethyl-1H-pyrazole-4-carboxylate]: the IC50 in assay [1] was 14 µM; in assay [2], 19 µM. `CCOC(=O)c1c(C)nn(-c2cc(C(F)(F)F)cc(C(F)(F)F)c2)c1C` [ethyl 1-[3,5-bis(trifluoromethyl)phenyl]-3,5-dimethyl-1H-pyrazole-4-carboxylate]: the IC50 in assay [1] was 97 µM; in assay [2], 160 µM. For the molecule `CCOC(=O)c1c(C)nn(-c2ccc([N+](=O)[O-])cc2)c1C` [ethyl 3,5-dimethyl-1-(4-nitrophenyl)-1H-pyrazole-4-carboxylate], the IC50 in assay [1] came to 1 µM; in assay [2], 0.84 µM. For the molecule `CCOC(=O)c1c(C)nn(-c2ccc(S(N)(=O)=O)cc2)c1C` [ethyl 3,5-dimethyl-1-(4-sulfamoylphenyl)-1H-pyrazole-4-carboxylate], the results for the concentration for half-maximal inhibition (IC50) in assay [1] and in assay [2] were 9.1 µM and 13 µM, respectively. For the molecule `CCOC(=O)c1c(C)nn(-c2cccc3cccnc23)c1C` [ethyl 3,5-dimethyl-1-(quinolin-8-yl)-1H-pyrazole-4-carboxylate], the IC50 in assay [1] turned out to be 19 µM; in assay [2], 17 µM.

Consider `CCOC(=O)c1c(C)nn(-c2ccc(OC(F)(F)F)cc2)c1C` [ethyl 3,5-dimethyl-1-[4-(trifluoromethoxy)phenyl]-1H-pyrazole-4-carboxylate], for which the results for the IC50 in assay [1] and in assay [2] were 21 µM and 32 µM, respectively.

`CCOC(=O)c1c(C)nn(-c2ccccc2)c1C` [ethyl 3,5-dimethyl-1-phenyl-1H-pyrazole-4-carboxylate] had an IC50 in assay [2] of 0.31 µM. Molecule `CCOC(=O)c1c(C)n[nH]c1C` [ethyl 3,5-dimethyl-1H-pyrazole-4-carboxylate] gave a concentration for half-maximal inhibition (IC50) in assay [2] of 60 µM. Consider `CCOC(=O)c1cn(-c2ccccc2)nc1-c1ccc(Cl)cc1` [ethyl 3-(4-chlorophenyl)-1-phenyl-1H-pyrazole-4-carboxylate], for which the IC50 came out at 0.88 µM in assay [1] and 1.5 µM in assay [2]. Regarding `CCOC(=O)c1cn[nH]c1N` [ethyl 3-amino-1H-pyrazole-4-carboxylate], the IC50 in assay [1] and in assay [2] was above 200 µM throughout.

On to `CCOC(=O)c1c(-c2ccc(OC)cc2)n[nH]c1N` [ethyl 3-amino-5-(4-methoxyphenyl)-1H-pyrazole-4-carboxylate], for which the values for the IC50 in assay [1] and in assay [2] were 19 µM and 15 µM, respectively. Take `CCOC(=O)c1cn[nH]c1C` [ethyl 3-methyl-1H-pyrazole-4-carboxylate]: the IC50 in assay [1] and in assay [2] was above 200 µM throughout. In the case of `CCOC(=O)c1cnn(-c2ncnc3sc4c(c23)CCCC4)c1N` [ethyl 5-amino-1-{8-thia-4,6-diazatricyclo[7.4.0.0^{2,7}]trideca-1(9),2(7),3,5-tetraen-3-yl}-1H-pyrazole-4-carboxylate], the values for the IC50 in assay [1] and in assay [2] were 50 µM and 25 µM, respectively. With `COC(=O)c1c(-c2cc(C)on2)n[nH]c1C` [methyl 3-methyl-5-(5-methyl-1,2-oxazol-3-yl)-1H-pyrazole-4-carboxylate], the IC50 in assay [1] and in assay [2] was above 200 µM in each case.

These data come from BindingDB's records for doi:10.1038/nbt1059 (Plexxikon, 2005).
